One assay concerns the target dpIRE1α* (Homo sapiens (Human), UniProt O75460). Nature of the assay: In vitro Kdimer assay (XBP1-mini substrate cleavage) with dpIRE1α*. It counts as biochemical. As to conditions: FIG. 4; for fold lowering of Kdimer of dpIRE1α* when kinase domain complexed to ligand: versus apo dpIRE1α*, FIG. 1D. The source says: (§1) In order to better understand how to achieve an optimal intermediate RNase activation state through engagement of IRE1α's kinase domain, we first established a quantitative in vitro framework for characterizing how ATP-binding site occupancy influences RNase activity. […] This dimeric state-commonly referred to as the “back-to-back” dimer—is characterized by an extensive interface between the kinase and RNase domains of each IRE1α protomer; this dimeric state can be promoted through mass action as IRE1α concentration is raised. […] Furthermore, ligands that occupy the ATP-binding site of the kinase domain can also stimulate IRE1α's RNase activity by promoting dimer formation. We measured the ability of a purified, recombinant kinase/RNase domain construct of IRE1α-called IRE1α* to cleave a FRET-quenched XBP1 RNA mini-substrate as a function of IRE1α* concentration, in order to provide a quantitative metric of IRE1α's dimer affinity (Kdimer) (FIG. 1). […]
IRE1α* or dPIRE1α* was titrated from either 2 μM or 4 μM in two-fold serial dilutions in assay buffer (20 mM Tris, 50 mM sodium chloride, 1 mM MgCl2, 2 mM DTT, 0.05% Triton X-100 (v/v), pH 7.5) and incubated with 50 μM inhibitor for 30 minutes at room temperature. […] Fluorescence was detected on a Perkin Elmer Envision Microplate Reader at excitation and emission wavelengths of 650 nm and 665 nm. Reaction process was monitored real time in 10-second intervals for at least 30 minutes. Initial rates of XBP1-cleavage were determined for each respective IRE1α* of dpIRE1α* concentration. Specific activity was then determined by dividing rate (RFU/s) by the respective IRE1α* of dpIRE1α* used (RFU/s*[IRE1α]). Kdimer values were determined by fitting these values using the non-linear regression ‘one-site total’ binding parameter in GraphPad Prism analysis software.

Assay [1] addresses T1, IRE1α (Homo sapiens (Human), UniProt O75460). Nature of the assay: In vitro Kdimer assay (XBP1-mini substrate cleavage) with IRE1α*. Type of assay: biochemical. The conditions noted are these: ligand-bound IRE1α*; FIG. 1E, FIG. 5.
Text: as §1
IRE1α* or dPIRE1α* was titrated from either 2 μM or 4 μM in two-fold serial dilutions in assay buffer (20 mM Tris, 50 mM sodium chloride, 1 mM MgCl2, 2 mM DTT, 0.05% Triton X-100 (v/v), pH 7.5) and incubated with 50 μM inhibitor for 30 minutes at room temperature. […] Fluorescence was detected on a Perkin Elmer Envision Microplate Reader at excitation and emission wavelengths of 650 nm and 665 nm. […]

In assay [2] the test system is XBP1 splicing in INS-1 cells. The assay can be described thus: XBP1 splicing in ER-stressed INS-1 cells. It counts as cell-based, rat. The conditions noted are these: INS-1 cells treated with brefeldin A or thapsigargin; FIG. 6. As to the method:
INS-1s (rat insulinoma beta cells) were grown in RPMI, 10% FBS buffer (v/v), 1 mM sodium pyruvate, 10 mM HEPES, 2 mM glutamine and 50 μM β-mercaptoethanol on Poly-D-Lysine coated tissue culture flasks. IRE1α (murine) was cloned into a pcDNA5/FRT/TO. INS-1 FRT/TO cells were grown following the protocol above. INS-1 FRT/TO cells were transfected with 2 μg IRE1α-pcDNA5/FRT/TO and 2 μg pOG44 using Lipofectamine 2000 (Thermo Fisher). Cell media was exchanged the next day and cells were allowed grow for another day before passaging. Selection was performed using 50 μg/mL Hygromycin-B (Thermo Fisher) over about two weeks until all un-transfected cells have died and colonies have appeared in transfected cells. Stably integrated cells were maintained in RPMI, 10% FBS buffer (v/v), 1 mM sodium pyruvate, 10 mM HEPES, 2 mM glutamine and 50 μM β-mercaptoethanol, […] Hygromycin-B. HEK293 cells were grown in DMEM High Glucose media (Gibco) supplemented with 10% FBS. […]
INS-1 or isogenic IRE1α-overexpressing INS-1 cells were plated onto Poly-D-Lysine coated tissue culture plate and grown for 48 hrs. […] PCR fragments were then digested by PstI, resolved on 3% agarose gels, stained with EtBr and quantified by densitometry using ImageJ (NIH). For standard mRNA detection, generally […] total RNA was reverse transcribed using the QuantiTect Reverse Transcription Kit (QIAGEN). […]

Assay [3] deals with T1, IRE1α. Nature of the assay: In vitro kinase activity assay (IC50 IRE1α kinase inhibition). Type of assay: biochemical. As to the method:
A construct containing the cytosolic kinase and RNase domains of human IRE1α (residues 547-977, IRE1α*) was expressed in SF9 insect cells by using the Bac-to-Bac baculovirus expression system (Invitrogen) with a His6 tag at the N-terminus and purified with a nickel-nitriloacetic acid (Qiagen) column. To generate dP-IRE1α*, we removed basal phosphorylation sites by incubating IRE1α* with λ-PPase (New England Biolabs) at a molar ratio of 5:1 (IRE1α*: X-PPase) in 50 mM HEPES pH 7.5, 100 mM NaCl, 1 mM MnCl2, 2 mM dithiothreitol (DTT) and 0.01% Brij 35 detergent (v/v) overnight at 4° C. Dephosphorylation was verified through western blotting using a universal phospho-protein detection agent (biotin-pIMAGO (Tymora Analytical Operations, Cat. No.: FL800) and imaged using a streptavidin-linked fluorophore.
In Vitro Kinase Activity Assay
Inhibitors (initial concentration of 10 or 60 μM, three-fold serial dilutions) were incubated with IRE1α* in cleavage buffer (20 mM HEPES, 0.05% Triton X-100 (v/v), 50 mM KCl, 1 mM MgCl2, 1 mM DTT, pH 7.5) for 30 min, followed by incubation with 10 μCi [γ^32P] ATP(3,000 Ci mmol^−1, PerkinElmer) at 23° C. for 3 hours. Samples were then spotted onto glass fiber paper (Easytab-C Glass Fiber Filter Paper, Perkin Elmer) and washed in twice with 0.5% phosphoric acid and autoradiographed using a GE Typhoon FLA 9000 Imager. Blots were quantitated using ImageQuant software. The percent inhibition was quantified by setting the background (no kinase well) as 0 and standardizing to IRE1α* without compound treatment (IRE1α*+DMSO). Dose-response curves were fit using “one-site fit logIC50” parameter using GraphPad Prism analysis software.
Compound Characterization (IC50 IRE1α Kinase Inhibition)

Usually IC50 stands for the concentration at which inhibition is half-maximal. Low readings indicate greater potency in that assay, high ones weaker potency in that assay.

The structures appear in SMILES notation.

T1 sequence (O75460 547-977): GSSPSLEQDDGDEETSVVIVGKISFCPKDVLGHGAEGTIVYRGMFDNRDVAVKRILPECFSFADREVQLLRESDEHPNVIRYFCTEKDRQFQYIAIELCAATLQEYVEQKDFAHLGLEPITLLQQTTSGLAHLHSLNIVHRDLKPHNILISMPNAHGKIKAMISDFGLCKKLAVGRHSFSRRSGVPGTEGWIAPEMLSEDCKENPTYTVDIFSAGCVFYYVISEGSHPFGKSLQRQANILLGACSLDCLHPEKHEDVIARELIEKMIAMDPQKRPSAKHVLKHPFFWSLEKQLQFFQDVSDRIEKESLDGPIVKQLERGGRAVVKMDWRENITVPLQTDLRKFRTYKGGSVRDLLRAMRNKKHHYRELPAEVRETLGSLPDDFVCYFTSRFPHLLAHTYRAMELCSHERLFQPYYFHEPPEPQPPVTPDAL
Chain of dpIRE1α* (O75460 547-977): as above

As for `O=C(Nc1c[nH]nc1-c1nc2ccc(CN3CCOCC3)cc2[nH]1)NC1CC1` [AT9283], the “fold lowering of Kdimer of dpIRE1α* when kinase domain complexed to ligand” value on dpIRE1α* is on record as “over 80 fold”.
On to `NC(=O)Nc1cc(-c2cccc(F)c2)sc1C(=O)N[C@H]1CCCNC1` [AZD7762], for which the “formation of RNase active dimers of IRE1α*” value at IRE1α [1] was “promotes the formation of the RNase active dimer”. The “formation of the RNase active dimer of dpIRE1α*” value on dpIRE1α* (dpIRE1α*-ligand complex) is “promotes the formation of the RNase active dimer”. For the same compound, the “fold lowering of Kdimer of dpIRE1α* when kinase domain complexed to ligand” value at dpIRE1α* is given as “over 80 fold”.
Consider `Cc1ccc2c(NS(=O)(=O)c3ccccc3Cl)cccc2c1Oc1ncccc1-c1ccnc(N[C@H]2CCCNC2)n1` [KIRA8], for which the “formation of RNase active dimers of IRE1α*” value on IRE1α [1] was “unable to form RNase active dimers at any concentration tested”. For the same compound, the XBP1 splicing result in assay [2] is recorded as “completely suppresses XBP1 splicing”.
For the compound `CCc1cc(-c2ccc(NS(=O)(=O)c3ccccc3Cl)nc2OC)cc2cnc(N[C@H]3CC[C@H](N)CC3)nc12` [LBC-0000405], on IRE1α [3], the IC50 was 5.1 nM.
Turning to `CCc1cc(-c2ccc(NS(=O)(=O)CCC(F)(F)F)nc2OC)cc2cnc(N[C@H]3CC[C@H](N)CC3)nc12` [LBC-0000406, N-(5-(2-(((1r,4r)-4-aminocyclohexyl)amino)-8-ethylquinazolin-6-yl)-6-methoxypyridin-2-yl)-3,3,3-trifluoropropane-1-sulfonamide], the IC50 at IRE1α [3] is 7.4 nM.
`CCc1cc(-c2ccc(NS(=O)(=O)CC(F)(F)F)nc2OC)cc2cnc(N[C@H]3CC[C@H](N)CC3)nc12` [LBC-0000407, N-(5-(2-(((1r,4r)-4-aminocyclohexyl)amino)-8-ethylquinazolin-6-yl)-6-methoxypyridin-2-yl)-2,2,2-trifluoroethane-1-sulfonamide] showed an IC50 against IRE1α [3] of 7.5 nM.
Same read-out and setting: as for `CCc1cc(-c2ccc(NS(=O)(=O)C3CC3)nc2OC)cc2cnc(N[C@H]3CC[C@H](N)CC3)nc12` [LBC-0000408, N-(5-(2-(((1r,4r)-4-aminocyclohexyl)amino)-8-ethylquinazolin-6-yl)-6-methoxypyridin-2-yl) cyclopropane sulfonamide], the figure is 5.1 nM.

The record behind these values is patent US11840523B2, “IRE1α inhibitors and uses thereof” (The Regents of the University of California, priority 2020, dated 2023).
